Here are results for two compounds from patent publication US20160184434A1, “AGENT FOR PROMOTING IN VIVO ABSORPTION OF HYDROXYTYROSOL AND DERIVATIVES THEREOF AND USE OF SAME” (priority 2013, published 2016).

The structures appear in SMILES notation.

Data set [1] is described as follows: Blood hydroxytyrosol after oral administration with EGCG or EGC (Example 1, HPLC). The format is in vivo, SD (IGS) male rats. Particulars: rats. The source says: The present inventors analyzed the influence of the particular compound having a galloyl group, i.e., EGCG, on the absorption of hydroxytyrosol in the body. At the same time, the inventors also analyzed the influence of EGC, a compound having no galloyl group, on the absorption of hydroxytyrosol in the body. By comparing the results for EGCG with those for the control, we investigated whether the galloyl group is involved in the absorption of hydroxytyrosol in the body.
SD (IGS) male rats (5 weeks old) were purchased from Oriental Bioservice, Inc. and habituated to the test environment for one week, and then those rats which were well grown were put to use in the selected test. Those rats fasted overnight were divided into three groups each consisting of 4 or 5 animals. Group 1 (control) was given 5 mL/kg of distilled water and 50 mg/5 mL/kg of a commercial hydroxytyrosol solution in distilled water; Group 2 was given 100 mg/5 mL/kg of an EGC solution in distilled water and 50 mg/5 mL/kg of a hydroxytyrosol solution in distilled water; and Group 3 was given 150 mg/5 mL/kg of an EGCG solution in distilled water and 50 mg/5 mL/kg of a hydroxytyrosol solution in distilled water—all of the groups were orally administered using a sonde. Before and at 0.25, 0.5, 1, 3 and 6 hours after the start of treatment, blood was sampled from the tail vein using a heparin-coated blood collection tube and centrifuged (at 8000 rpm for 10 min) to obtain plasma samples. The obtained plasma samples were subjected to deconjugation and deproteinization treatments, and the resulting supernatants were concentrated under reduced pressure, redissolved in 20% acetonitrile, and passed through a filter. The resulting solutions were analyzed by HPLC to determine their peak areas. Thus, quantification of hydroxytyrosol was performed. The EGCG used in this example was a commercially available EGCG product (EGCG purity: 94%). The HPLC conditions are shown below.
Column: X-bridge C18 (3.5 μm, 2.1×150 mm, produced by Waters)
Mobile phase: A: 0.1% acetic acid solution in water, B: 0.1% acetic acid/90% acetonitrile solution in water

Data set [2] is described as follows: Blood hydroxytyrosol after oral administration with 500 mg/kg grape seed extract (Example 2, LC/MS/MS). The format is in vivo, SD (IGS) male rats. As to conditions: rats, hydroxytyrosol 30 mg/kg alone. The method, then:
The present inventors investigated the influence of an OPC on the absorption of hydroxytyrosol in the body.
SD (IGS) male rats (9 weeks old) were purchased from Oriental Bioservice, Inc. and habituated to the test environment for one week, and then those rats which were well grown were put to use in the selected test. Those rats fasted overnight were divided into two groups each consisting of 5 or 6 animals. Group 1 (control) was given 30 mg/5 mL/kg of a hydroxytyrosol solution in distilled water; and Group 2 was given 30 mg/kg of hydroxytyrosol plus 5 mL/kg of a solution of 500 mg/kg grape seed extract in distilled water—both of the groups were orally administered using a sonde. Before and at 0.25, 0.5, 1, 2, 3 and 6 hours after the start of treatment, blood was sampled from the tail vein using a heparin-coated blood collection tube and centrifuged (at 8000 rpm for 10 min) to obtain plasma samples. The obtained plasma samples were subjected to deconjugation and deproteinization treatments, and the resulting supernatants were concentrated under reduced pressure, redissolved in 20% acetonitrile, and passed through a filter. The resulting solutions were analyzed by LC/MS/MS, and quantification of hydroxytyrosol was performed using the internal standard method. HPLC conditions
Internal standard (I.S.): 3-(4-hydroxyphenyl)-1-propanol […]

Data set [3] can be described thus: Blood hydroxytyrosol after oral administration with 150 to 750 mg/kg grape seed extract (Example 4). As to conditions: male, SD (IGS), rat, rats, hydroxytyrosol 30 mg/kg alone (control), plasma, read-out: AUC of hydroxytyrosol at 0 to 6 hours. The class given is in vivo. The procedure:
The present inventors investigated whether the same promoting effect on the absorption of hydroxytyrosol in the body can be observed even if the dose of the grape seed extract is further increased in the same test system as used for the investigations in Examples 2 and 3. […] The method for calculating this purity will be presented later in Example 5. Also, the amount of a galloyl group contained in the grape seed extract was measured as the amount of a galloyl ester and determined to be about 2.2% by weight. The method for calculating this amount will be presented later in Example 6.
SD (IGS) male rats (8 weeks old) were purchased from Oriental Bioservice, Inc. and habituated to the test environment for one week, and then those rats which were well grown were put to use in the selected test. Those rats fasted overnight were divided into five groups each consisting of 4 animals (however, Group 5 consists of 2 animals). […]
The obtained plasma samples were subjected to deconjugation and deproteinization treatments, and the resulting supernatants were concentrated under reduced pressure, redissolved in 20% acetonitrile, and passed through a filter. The resulting solutions were analyzed by LC/MS/MS, and quantification of hydroxytyrosol was performed using the internal standard method. […]

Data set [4] is described as follows: Blood hydroxytyrosol after oral administration with reduced doses of grape seed extract (Example 3). The format is in vivo. Particulars: male, SD (IGS), rat, rats, hydroxytyrosol 30 mg/kg alone (control), plasma, read-out: AUC of hydroxytyrosol at 0 to 6 hours. The source says: The present inventors investigated whether the same promoting effect on the absorption of hydroxytyrosol in the body as observed in Example 2 can be observed even if the dose of the grape seed extract is reduced.
SD (IGS) male rats (9.5 weeks old) were purchased from Oriental Bioservice, Inc. and habituated to the test environment for two weeks, and then those rats which were well grown were put to use in the selected test. Those rats fasted overnight were divided into three groups each consisting of 4 animals. Group 1 (control) was given 30 mg/5 mL/kg of a hydroxytyrosol solution in distilled water; Group 2 was given 30 mg/kg of hydroxytyrosol plus 5 mL/kg of a solution of 150 mg/kg grape seed extract in distilled water; and Group 3 was given 30 mg/kg of hydroxytyrosol plus 5 mL/kg of a solution of 250 mg/kg grape seed extract in distilled water—all of the groups were orally administered using a sonde. Before and at 0.25, 0.5, 1, 2, 3 and 6 hours after the start of treatment, blood was sampled from the tail vein using a heparin-coated blood collection tube and centrifuged (at 8000 rpm for 10 min) to obtain plasma samples. […] The resulting solutions were analyzed by LC/MS/MS, and quantification of hydroxytyrosol was performed using the internal standard method. […]

The mark [5] stands for this setting: hydroxytyrosol 50 mg/kg concurrently with EGCG 150 mg/kg.

`O=C(O[C@@H]1Cc2c(O)cc(O)cc2O[C@@H]1c1cc(O)c(O)c(O)c1)c1cc(O)c(O)c(O)c1` [EGCG, epigallocatechin gallate]: in data set [1] (setting [5]), the “blood hydroxytyrosol concentration after its peak (absorption profile)” value is on record as “kept high even thereafter” and the “time at which blood hydroxytyrosol concentration reached its peak” value turned out to be 30 min.
By AUC is commonly meant the area under the concentration-time curve, a measure of exposure. Take `OCCc1ccc(O)c(O)c1` [hydroxytyrosol, 3,4-dihydroxyphenylethanol]: in data set [2], the “blood hydroxytyrosol at 2 or 3 hours after administration” value is “little or no hydroxytyrosol was detected”. Besides, the AUC in data set [3] came out at 7360 ng·h/mL; in data set [4], 8640 ng·h/mL; in data set [1] (male, SD (IGS), rat, hydroxytyrosol 50 mg/kg alone (control), plasma, read-out: AUC of hydroxytyrosol (amount absorbed in the body)), 12000 ng·h/mL. Besides, the “time at which blood hydroxytyrosol concentration reached its peak” value in data set [1] (hydroxytyrosol 50 mg/kg alone) worked out at 18 min.
